Assay results published in patent US7902186B2, “Substituted 5-phenyl-3,6-dihydro-2-oxo-6H-1,3,4-thiadiazines” (Merck Patent GmbH, priority 2005, dated 2011).

molecular target: T1, Met kinase (Homo sapiens, UniProt P08581); assay: Met kinase inhibition, flashplate method; format: biochemical; conditions: 33P-ATP, substrate pAGLT, 3 hrs at room temperature, read-out: IC50 (enzyme)
T1 construct: 6His (N); purchased Upstate 14-526; host or cells: Sf21 insect cells (S. frugiperda), baculovirus
From the text: Measurement of Met Kinase Activity
According to the manufacturer's data (Met, active, upstate, catalogue No. 14-526), Met kinase is expressed for the purposes of protein production in insect cells (Sf21; S. frugiperda) and subsequent affinity-chromatographic purification as “N-terminal 6His-tagged” recombinant human protein in a baculovirus expression vector.
Flashplate Method (Met Kinase)
The test plates used are 96-well Flashplate® microtitre plates from Perkin Elmer (Cat. No. SMP200). The components of the kinase reaction described below are pipetted into the assay plate. The Met kinase and the substrate poly Ala-Glu-Lys-Tyr, (pAGLT, 6:2:5:1), are incubated for 3 hrs at room temperature with radioactively labelled ^33P-ATP in the presence and absence of test substances in a total volume of 100 μl. The reaction is terminated using 150 μl of a 60 mM EDTA solution. After incubation for a further 30 min at room temperature, the supernatants are filtered off with suction, and the wells are washed three times with 200 μl of 0.9% NaCl solution each time. The measurement of the bound radioactivity is carried out by means of a scintillation measuring instrument (Topcount NXT, Perkin-Elmer).
The full value used is the inhibitor-free kinase reaction. This should be approximately in the range 6000-9000 cpm. The pharmacological zero value used is staurosporin in a final concentration of 0.1 mM. The inhibitory values (IC50) are determined using the RS1_MTS program.
Kinase Reaction Conditions Per Well:
• 30 μl of assay buffer • 10 μl of substance to be tested in assay buffer with 10% of DMSO • 10 μl of ATP (final concentration 1 μM cold, 0.35 μCi of ^33P-ATP) • 50 μl of Met kinase/substrate mixture in assay buffer; • (10 ng of enzyme/well, 50 ng of pAGLT/well)
Assay Buffer: • 50 mM HEPES • 3 mM magnesium chloride • 3 μM sodium orthovanadate • 3 mM manganese(II) chloride • 1 mM dithiothreitol (DTT) • pH=7.5 (to be set using sodium hydroxide)
Stop Solution: • 60 mM Titriplex III (EDTA)
^33P-ATP: Perkin-Elmer; • Met kinase: Upstate, Cat. No. 14-526, Stock 1 μg/10 μl; spec. activity 954 U/mg; • Poly-Ala-Glu-Lys-Tyr, 6:2:5:1: Sigma Cat. No. P1152

T1 sequence (P08581 974-1390 limits assumed): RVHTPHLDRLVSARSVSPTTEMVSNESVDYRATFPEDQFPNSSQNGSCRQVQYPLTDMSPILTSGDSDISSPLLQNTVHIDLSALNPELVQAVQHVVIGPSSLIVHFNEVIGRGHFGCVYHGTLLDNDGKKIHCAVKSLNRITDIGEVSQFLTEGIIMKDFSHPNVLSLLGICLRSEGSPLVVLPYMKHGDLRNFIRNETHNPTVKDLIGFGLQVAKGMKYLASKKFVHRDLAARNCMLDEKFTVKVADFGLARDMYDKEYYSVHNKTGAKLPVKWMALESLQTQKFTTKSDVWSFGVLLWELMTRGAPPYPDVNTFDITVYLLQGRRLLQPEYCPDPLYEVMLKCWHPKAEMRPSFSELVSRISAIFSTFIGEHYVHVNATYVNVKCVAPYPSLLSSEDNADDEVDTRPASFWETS

IC50 [µM] | SMILES
0.01 to 1 | CCNCCCOC(=O)Nc1cccc(CN2N=C(c3ccc(C#N)cc3)CSC2=O)c1 [Compound A33]
0.01 to 1 | CN(C)CCCOC(=O)Nc1cccc(CN2N=C(c3ccc(C#N)cc3)CSC2=O)c1 [Compound A20]
0.01 to 1 | CN(C)CCCOC(=O)Nc1cccc(CN2N=C(c3ccccc3F)CSC2=O)c1 [Compound A12]
0.01 to 1 | CCOC(=O)Nc1cccc(CN2N=C(c3ccc(Cl)cc3)CSC2=O)c1 [Compound A7]
0.01 to 1 | O=C(Nc1cccc(CN2N=C(c3cc(Cl)ccc3O)CSC2=O)c1)c1cccnc1 [Compound B4]
0.01 to 1 | COc1ccccc1C1=NN(Cc2cccc(NC(=O)OCCCN(C)C)c2)C(=O)SC1 [Compound A17]
0.01 to 1 | CC(c1cccc(NC(=O)OCCCN2CCOCC2)c1)N1N=C(c2ccc(F)c(F)c2)CSC1=O (stereo not shown) [Compound A29]
0.01 to 1 | CNCC(=O)Nc1cccc(CN2N=C(c3cc(Cl)ccc3O)CSC2=O)c1 [Compound B1, N-{3-[5-(5-chloro-2-hydroxyphenyl)-2-oxo-6H-1,3,4-thiadiazin-3-ylmethyl]phenyl}-2-methylaminoacetamide]
0.01 to 1 | O=C(Nc1cccc(CN2N=C(c3ccccc3O)CSC2=O)c1)c1cccnc1 [Compound B6]
0.01 to 1 | CC(c1cccc(NC(=O)OCCCN(C)C)c1)N1N=C(c2ccc(F)c(F)c2)CSC1=O (stereo not shown) [Compound A31]
0.01 to 1 | CN(C)CCCOC(=O)Nc1cccc(CN2N=C(c3cccc(F)c3)CSC2=O)c1 [Compound A11]
0.01 to 1 | CC(c1cccc(NC(=O)OCCCN2CCN(C)CC2)c1)N1N=C(c2ccc(F)c(F)c2)CSC1=O (stereo not shown) [Compound A30]
0.01 to 1 | CN(C)CCCOC(=O)Nc1cccc(CN2N=C(c3ccc(Cl)cc3)CSC2=O)c1 [Compound A6]
